In patent US5948803A, “N-substituted dioxothiazolidylbenzamide derivatives and process for producing the same” (Kyorin Pharmaceutical Co., Ltd., priority 1995, dated 1999):

How the values were obtained:
[1] = test system: inherited obese mice (C57BL ob/ob); assay: Blood sugar-lowering effect in glucose tolerance test, inherited obese mice (C57BL ob/ob); format: in vivo, mouse (C57BL ob/ob); conditions: 10 mg/kg oral, 5 days; glucose 2 g/kg orally after overnight fasting; blood sugar at 0, 30 and 60 minutes
Description: Employing inherited obese mice (C57BL ob/ob), prior to test, the blood sugar level was determined by collecting blood from caudal vein. The mice were grouped so as not to cause any difference in the blood sugar level, and the compounds of Example 16, 17 and 29 were administered orally for 5 days at a dosage of 10 mg/kg. For the glucose tolerance test, 2 g/kg of glucose were administered orally after fasting overnight and the blood sugar levels at 0 minute, 30 minutes and 60 minutes were determined. The blood sugar-lowering rate was calculated from following formula. [formula]

[2] = test system: inherited obese mice (C57BL ob/ob); assay: Triglyceride-lowering effect in blood, inherited obese mice (C57BL ob/ob); format: in vivo, mouse (C57BL ob/ob); conditions: 2 weeks
Description: Employing inherited obese mice (C57BL ob/ob), the compound of Example 16 was administered orally for 2 weeks at following dosages, and thereafter the triglyceride level in blood was determined. The triglyceride-lowering rate in blood was calculated from following formula. [formula]

aldose reductase = target: T1, aldose reductase (Rattus norvegicus, UniProt P07943); assay: In-vitro inhibitory effect against aldose reductase extracted from rat lens (method of Hayman and Kinoshita); format: biochemical
T1 construct: aldose reductase extracted from rat lens; from tissue; host or cells: rat lens
Description: Against aldose reductase extracted from rat lens, the in-vitro inhibitory effect of the compound of Example 16 was investigated by the method of Hayman and Kinoshita (Journal of Biological Chemistry, vol. 240, p. 877 (1965)).

Compound | Blood sugar-depressing rate [1] | In-blood triglyceride depressing rate ([2]; 3 mg/kg oral) | In-blood triglyceride depressing rate ([2]; 10 mg/kg oral) | IC50 (aldose reductase)
COc1ccc(C2SC(=O)NC2=O)cc1C(=O)NCc1ccc(C(F)(F)F)cc1 (stereo not drawn) [Example 16, N-(4-trifluoromethylbenzyl)-5-(2,4-dioxothiazolidin-5-yl)-2-methoxybenzamid] | 48% | 51% | 70% | 23 nM
COc1ccc(C2SC(=O)NC2=O)cc1C(=O)NCc1cccc(C(F)(F)F)c1 (stereo not drawn) [Example 17] | 42% | – | – | –
O=C1NC(=O)C(c2ccc(F)c(C(=O)NCc3ccc(C(F)(F)F)cc3)c2)S1 (stereo not drawn) [Example 29] | 30% | – | – | –
